US9326506B2, “Preparation method, agricultural composition and applications of natural brassinolide analogs” (CHENGDU NEWSUN CROPSCIENCE CO., LTD, priority 2012, dated 2016)

Test system: rice
Assay: Low temperature assay on rice seedlings
Format: in vivo
Outline: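 Nine-day-old etiolated rice seedlings (grown on water at 30 °C±2 °C, dark) immersed in brassinolide analogues at 1–0.0001 mg/L or pure water, held at 1–5 °C for 24 hr. Plant height, leaf area, root weight read at 3, 6, 9, 12 days; leaf and tiller number at 12 days.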

`CC(C)C[C@@H](O)[C@H](O)[C@@H](C)[C@H]1CCC2C3CC(=O)C4C[C@H](O)[C@H](O)C[C@]4(C)C3CC[C@@]21C` (stereo partly drawn) [BR5] showed an Area of leaf (0.0001 mg/l, 1 °C, 3 days) of 9.8 cm^2, a Height (0.0001 mg/l, 1 °C, 3 days) of 6.8 cm and a Weight of root (0.0001 mg/l, 1 °C, 3 days) of 2.8 g. It also gave an Area of leaf (0.0001 mg/l, 1 °C, 6 days) of 11.2 cm^2, a Height (0.0001 mg/l, 1 °C, 6 days) of 6.9 cm and a Weight of root (0.0001 mg/l, 1 °C, 6 days) of 3.1 g. It also gave an Area of leaf (0.0001 mg/l, 1 °C, 9 days) of 12 cm^2, a Height (0.0001 mg/l, 1 °C, 9 days) of 7 cm and a Weight of root (0.0001 mg/l, 1 °C, 9 days) of 3.4 g. The Area of leaf (0.0001 mg/l, 1 °C, 12 days) was 13.1 cm^2, the Height (0.0001 mg/l, 1 °C, 12 days) was 7.2 cm and the Number of leaf (0.0001 mg/l, 1 °C, 12 days) was 3. It also gave a Number of tiller (0.0001 mg/l, 1 °C, 12 days) of 3, a Weight of root (0.0001 mg/l, 1 °C, 12 days) of 3.6 g and an Area of leaf (0.0001 mg/l, 2 °C, 3 days) of 10 cm^2. It also gave a Height (0.0001 mg/l, 2 °C, 3 days) of 6.8 cm, a Weight of root (0.0001 mg/l, 2 °C, 3 days) of 2.8 g and an Area of leaf (0.0001 mg/l, 2 °C, 6 days) of 11.7 cm^2. The Height (0.0001 mg/l, 2 °C, 6 days) was 7 cm, the Weight of root (0.0001 mg/l, 2 °C, 6 days) was 3.0 g and the Area of leaf (0.0001 mg/l, 2 °C, 9 days) was 12.4 cm^2. The Height (0.0001 mg/l, 2 °C, 9 days) was 7.1 cm, the Weight of root (0.0001 mg/l, 2 °C, 9 days) was 3.2 g and the Area of leaf (0.0001 mg/l, 2 °C, 12 days) was 13 cm^2. For the same compound, the Height (0.0001 mg/l, 2 °C, 12 days) was 7.4 cm, the Number of leaf (0.0001 mg/l, 2 °C, 12 days) was 3 and the Number of tiller (0.0001 mg/l, 2 °C, 12 days) was 3. The Weight of root (0.0001 mg/l, 2 °C, 12 days) was 3.4 g, the Area of leaf (0.0001 mg/l, 3 °C, 3 days) was 10 cm^2 and the Height (0.0001 mg/l, 3 °C, 3 days) was 6.9 cm. For the same compound, the Weight of root (0.0001 mg/l, 3 °C, 3 days) was 2.5 g, the Area of leaf (0.0001 mg/l, 3 °C, 6 days) was 11.8 cm^2 and the Height (0.0001 mg/l, 3 °C, 6 days) was 7.2 cm. The Weight of root (0.0001 mg/l, 3 °C, 6 days) was 2.6 g, the Area of leaf (0.0001 mg/l, 3 °C, 9 days) was 12.3 cm^2 and the Height (0.0001 mg/l, 3 °C, 9 days) was 7.4 cm. The Weight of root (0.0001 mg/l, 3 °C, 9 days) was 2.9 g, the Area of leaf (0.0001 mg/l, 3 °C, 12 days) was 13.2 cm^2 and the Height (0.0001 mg/l, 3 °C, 12 days) was 7.5 cm. The Number of leaf (0.0001 mg/l, 3 °C, 12 days) was 3, the Number of tiller (0.0001 mg/l, 3 °C, 12 days) was 2 and the Weight of root (0.0001 mg/l, 3 °C, 12 days) was 2.9 g. For the same compound, the Area of leaf (0.0001 mg/l, 4 °C, 3 days) was 10 cm^2, the Height (0.0001 mg/l, 4 °C, 3 days) was 6.9 cm and the Weight of root (0.0001 mg/l, 4 °C, 3 days) was 2.5 g. The Area of leaf (0.0001 mg/l, 4 °C, 6 days) was 11.7 cm^2, the Height (0.0001 mg/l, 4 °C, 6 days) was 7.3 cm and the Weight of root (0.0001 mg/l, 4 °C, 6 days) was 2.6 g. It also gave an Area of leaf (0.0001 mg/l, 4 °C, 9 days) of 13 cm^2, a Height (0.0001 mg/l, 4 °C, 9 days) of 7.5 cm and a Weight of root (0.0001 mg/l, 4 °C, 9 days) of 2.7 g. It also gave an Area of leaf (0.0001 mg/l, 4 °C, 12 days) of 13.4 cm^2, a Height (0.0001 mg/l, 4 °C, 12 days) of 7.6 cm and a Number of leaf (0.0001 mg/l, 4 °C, 12 days) of 3. For the same compound, the Number of tiller (0.0001 mg/l, 4 °C, 12 days) was 2, the Weight of root (0.0001 mg/l, 4 °C, 12 days) was 2.9 g and the Area of leaf (0.0001 mg/l, 5 °C, 3 days) was 10.2 cm^2. For the same compound, the Height (0.0001 mg/l, 5 °C, 3 days) was 7.0 cm, the Weight of root (0.0001 mg/l, 5 °C, 3 days) was 2.5 g and the Area of leaf (0.0001 mg/l, 5 °C, 6 days) was 12 cm^2. For the same compound, the Height (0.0001 mg/l, 5 °C, 6 days) was 7.2 cm, the Weight of root (0.0001 mg/l, 5 °C, 6 days) was 2.7 g and the Area of leaf (0.0001 mg/l, 5 °C, 9 days) was 13.2 cm^2. The Height (0.0001 mg/l, 5 °C, 9 days) was 7.5 cm, the Weight of root (0.0001 mg/l, 5 °C, 9 days) was 2.9 g and the Area of leaf (0.0001 mg/l, 5 °C, 12 days) was 14 cm^2. The Height (0.0001 mg/l, 5 °C, 12 days) was 7.7 cm, the Number of leaf (0.0001 mg/l, 5 °C, 12 days) was 3 and the Number of tiller (0.0001 mg/l, 5 °C, 12 days) was 2. It also gave a Weight of root (0.0001 mg/l, 5 °C, 12 days) of 3.0 g, an Area of leaf (0.001 mg/l, 1 °C, 3 days) of 10.1 cm^2 and a Height (0.001 mg/l, 1 °C, 3 days) of 6.9 cm. The Weight of root (0.001 mg/l, 1 °C, 3 days) was 2.8 g, the Area of leaf (0.001 mg/l, 1 °C, 6 days) was 11.3 cm^2 and the Height (0.001 mg/l, 1 °C, 6 days) was 7.1 cm. For the same compound, the Weight of root (0.001 mg/l, 1 °C, 6 days) was 3.1 g, the Area of leaf (0.001 mg/l, 1 °C, 9 days) was 12.8 cm^2 and the Height (0.001 mg/l, 1 °C, 9 days) was 7.2 cm. For the same compound, the Weight of root (0.001 mg/l, 1 °C, 9 days) was 3.3 g, the Area of leaf (0.001 mg/l, 1 °C, 12 days) was 13 cm^2 and the Height (0.001 mg/l, 1 °C, 12 days) was 7.3 cm. It also gave a Number of leaf (0.001 mg/l, 1 °C, 12 days) of 3, a Number of tiller (0.001 mg/l, 1 °C, 12 days) of 3 and a Weight of root (0.001 mg/l, 1 °C, 12 days) of 3.9 g. For the same compound, the Area of leaf (0.001 mg/l, 2 °C, 3 days) was 9.8 cm^2, the Height (0.001 mg/l, 2 °C, 3 days) was 6.9 cm and the Weight of root (0.001 mg/l, 2 °C, 3 days) was 2.8 g.
